Assay results as given in US20250250265A1, “BENZOTHIAZOLE-PHENYLSULFONYL-PIPERIDINE ANALOGS AS ACTIVATORS OF NACYLPHOSPHATIDYLETHANOLAMINE HYDROLYZING PHOSPHOLIPASE D” (priority 2022, published 2025).
Entries after “also recorded” stand apart in the source; their conditions may differ.

Assays:
[1] = target: T1, recombinant human NAPE-PLD (Homo sapiens, UniProt Q6IQ20); assay: Concentration response with recombinant human NAPE-PLD, PED-A1 as substrate; type: biochemical; settings: for effect on activity of recombinant human NAPE-PLD: graded concentrations (FIG. 18A)
T1 construct: The expression plasmid including the full-length human NAPEPLD gene with a C-terminal hexahistidine tag; hexahistidine (His6) (C)
T1 sequence (Q6IQ20 whole entry): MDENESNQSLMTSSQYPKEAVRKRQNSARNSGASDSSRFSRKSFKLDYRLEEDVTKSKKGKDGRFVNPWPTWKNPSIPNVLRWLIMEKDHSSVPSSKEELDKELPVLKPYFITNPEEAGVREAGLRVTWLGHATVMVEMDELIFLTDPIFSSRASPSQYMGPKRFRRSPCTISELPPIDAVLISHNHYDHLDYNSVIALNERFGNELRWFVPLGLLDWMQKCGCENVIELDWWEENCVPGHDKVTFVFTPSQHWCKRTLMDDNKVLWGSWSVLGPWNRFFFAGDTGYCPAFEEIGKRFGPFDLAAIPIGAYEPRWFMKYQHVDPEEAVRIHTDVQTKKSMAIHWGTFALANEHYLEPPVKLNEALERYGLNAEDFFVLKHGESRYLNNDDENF
Text: FIG. 18A-B show VU534 and VU533 activate human NAPE-PLD. […] Mean±SEM, n=3. Non-linear regression with variable slope (four parameter) was used to calculate EC50 and Emax.
Initial stocks of potential NAPE-PLD modulator compounds were purchased from Life Chemicals and provided by the Vanderbilt HTS screening facility. Additional compounds were synthesized by the Vanderbilt Chemical Synthesis core. LEI-401, [^2H4]PEA and [^2H4]OEA were purchased from Cayman Chemicals. N-palmitoyl-PE, 1,2-dioleoyl-PE and 1,2-dihexanoyl-PE were purchased from Avanti Polar Lipids. PED-A1 was purchased from Invitrogen. Flame-NAPE was synthesized as previously described. See Zarrow et al., J. Lipid Res. 63(1): 100156 (2022). [^2H4]N-palmitoyl-PE was synthesized using [^2H4] palmitic acid (Cambridge Isotope Laboratories) and 1,2-dioleoyl-PE and N-oleoyl-PE was synthesized using 1,2-dihexanoyl-PE and oleoyl chloride (Millipore Sigma). Recombinant mouse NAPE-PLD with a C-terminal hexahistidine tag was expressed in E. coli and purified using cobalt affinity beads as previously described. See Aggarwal et al., J. Biol. Chem. 295(21): 7289-7300 (2020). The expression plasmid including the full-length human NAPEPLD gene with a C-terminal hexahistidine tag inserted in a pET plasmid was purchased from VectorBuilder, and the protein expressed and purified in an identical manner to recombinant mouse NAPE-PLD. The sEH inhibitors TPPU (N-[1-(1-Oxopropyl)-4-piperidinyl]-N′-[4-(trifluoromethoxy)phenyl]urea) and AUDA (12-[[(tricyclo[3.3.1.13,7]dec-1-ylamino)carbonyl]amino]-dodecanoic acid) were purchased from Cayman Chemical and Sigma Chemicals, respectively.
In vitro fluorescence NAPE-PLD activity assays using recombinant NAPE-PLD and either PED-A1 or flame-NAPE as fluorogenic substrate were performed as previously described except with small modifications as noted below. See Aggarwal et al., J. Biol. Chem. 295(21): 7289-7300 (2020); Zarrow et al., J. Lipid Res. 63(1): 100156 (2022).
Concentration response curve (CRC) experiments used the same assay conditions as the HTS assay, except that graded concentrations of each test compound were used, with total amount of vehicle (DMSO) kept constant. CRC experiments with purified recombinant mouse NAPE-PLD were performed on two separate days, with values from each day normalized to vehicle only controls on same plate, and then all normalized values from both days averaged together. CRC experiments with human NAPE-PLD represent value from only a single day, due to limited amounts of this recombinant enzyme.

[2] = target: T2, NAPE-PLD activity in primary BMDMϕ (Mus musculus, UniProt Q8BH82); assay: NAPE-PLD activity in primary bone marrow derived macrophages; type: cell-based; settings: VU534 at 10 μM (FIG. 5)
T2 construct: endogenous in cells; host or cells: primary bone-marrow-derived macrophages (C57BL6/j mice)
T2 sequence (Q8BH82 1-396): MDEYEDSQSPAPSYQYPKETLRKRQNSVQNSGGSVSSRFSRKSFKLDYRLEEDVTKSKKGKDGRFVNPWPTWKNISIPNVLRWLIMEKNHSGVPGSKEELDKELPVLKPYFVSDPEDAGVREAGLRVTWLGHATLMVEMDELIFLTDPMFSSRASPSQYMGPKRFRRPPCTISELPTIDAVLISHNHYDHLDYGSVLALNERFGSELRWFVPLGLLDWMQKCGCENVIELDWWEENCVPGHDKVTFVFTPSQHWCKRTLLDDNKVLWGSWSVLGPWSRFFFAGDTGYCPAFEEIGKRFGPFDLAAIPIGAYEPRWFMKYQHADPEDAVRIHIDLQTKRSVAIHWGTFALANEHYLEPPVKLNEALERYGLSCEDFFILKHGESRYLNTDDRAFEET

[3] = target: T3, recombinant mouse NAPE-PLD (Mus musculus, UniProt Q8BH82); assay: Michaelis-Menten analysis with flame-NAPE as substrate; type: biochemical
T3 construct: hexahistidine (His6) (C); made in house; host or cells: E. coli
T3 sequence (Q8BH82 1-396): T2 sequence (Q8BH82 1-396)
Experimental: To further understand this effect, a 50-nanosecond molecular dynamic (MD) simulation was performed using AMBER17. The PDQ9:VU534 complex was prepped for simulation using CHARMM-GUI and ff14SB, TIP3P, GAFF2 force fields were employed for proteins, […] molecules, respectively. This simulation predicted that VU534 binding to the interface pocket allosterically alters the catalytic site conformation including reorienting the zinc-hydroxide-zinc complex parallel to the substrate (FIG. 11), consistent with the measured increased kcat.
(§1) A similar in vitro fluorescence Nape-pld activity assay was used for LEI-401 and VU233 competition assays except that this assay was performed using black-walled clear-bottom 96-well plates with 3.5 μM PED-A1 and no N-palmitoyl-dioleoyl-PE used as substrate and read in a BioTek Synergy H1 plate reader with the slope of the fluorescence signal from 0-4 min (linear phase) used as the assay readout. LEI-401, VU233, and VU534 were incubated for 1 h prior to addition of PED-A1. The Michaelis-Menten study used this same assay except with graded concentration of flame-NAPE.
To confirm the results of the fluorescence-based assays, an orthogonal biochemical Nape-pld assay based on LC/MS was employed. Recombinant mouse NAPE-PLD was pre-treated with VU534, VU533, VU233 or vehicle for 30 min, then N-oleoyl-phosphatidylethanolamine (NOPE) was added for 90 min, and the resulting levels of OEA and NOPE was measured by LC/MS. […] To further characterize the effect of VU534 on NAPE-PLD activity, a Michaelis-Menten analysis was performed using recombinant mouse NAPE-PLD and graded concentrations of flame-NAPE, a selective NAPE-PLD fluorogenic substrate resistant to competing esterase activity.

[4] = target: T3, recombinant mouse NAPE-PLD; assay: In vitro competition assay (LEI-401, VU233, VU534) on recombinant mouse Nape-pld; type: biochemical
Experimental: as §1

Cc1ccc(C)c2sc(NC(=O)C3CCN(S(=O)(=O)c4ccc(F)cc4)CC3)nc12 [VU533]
Emax, recombinant human NAPE-PLD ([1]; FIG. 18A, PED-A1): 1.9 fold | effect on activity of recombinant human NAPE-PLD [1]: concentration-dependent increases

Cc1cc(C)c2sc(NC(=O)C3CCN(S(=O)(=O)c4ccc(F)cc4)CC3)nc2c1 [VU534, N-(5,7-Dimethylbenzo[d]thiazol-2-yl)-1-((4-fluorophenyl)sulfonyl)piperidine-4-carboxamide]
Emax, recombinant human NAPE-PLD ([1]; FIG. 18A, PED-A1): 1.8 fold | effect on activity of recombinant human NAPE-PLD [1]: concentration-dependent increases | effect on NAPE-PLD activity in primary BMDM [2]: increases NAPE-PLD activity | effect on catalytic rate (kcat) of NAPE-PLD ([3]; Example 9, FIG. 10): enhanced kcat (turnover number) without reducing the Michaelis-Menten constant, Km; also recorded: increases the catalytic rate | K1/2 of NAPE-PLD ([3]; with VU534 (vehicle 12.4 μM), flame-NAPE): 5.9 µM | maximal velocity of NAPE-PLD ([3]; with VU534 (vehicle 227 RFU/min), flame-NAPE): 421 RFU/min | increase of Nape-pld activity ([4]; 5 μM, in the absence of LEI-401): 1.5 fold

O=C(Nc1nc2ccccc2s1)C1CCN(S(=O)(=O)c2ccc(F)c(Cl)c2)CC1 [VU233]
EC50, recombinant human NAPE-PLD ([1]; FIG. 18A, PED-A1): not calculable | effect on activity of recombinant human NAPE-PLD [1]: no significant effect | effect on enzyme activation by 5 μM VU534 ([4]; graded concentrations with 5 μM VU534 (FIG. 19C)): suppress the enzyme activation of 5 μM VU534 in a concentration-dependent manner
